From patent US11208412B2 (DAEGU-GYEONGBUK MEDICAL INNOVATION FOUNDATION, priority 2017, dated 2021) come the findings set out here.

Holding throughout (experiment): Kinase selectivity, DiscoverX scanMAX Kinase assay panel (% control)
Common to all, as to format: binding

The target in assay [1] is T1, kinases of the scanMAX Kinase assay panel (Homo sapiens, UniProt P42336, C420R).
T1 construct: purchased DiscoverX Co. (contract measurement) scanMAX Kinase assay panel
Conditions: PIK3CA(C420R); 1 uM. The gist of the method:
(§1)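 Compounds were tested at 1 uM (in DMSO) against each panel kinase. % control was calculated as (compound − positive control)/(negative control − positive control)×100, where the positive control gives 0% and DMSO gives 100%. Activity toward a kinase was called at % control <35%.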

In assay [2] the target is T2, kinases of the scanMAX Kinase assay panel (Homo sapiens, UniProt Q9P2K8, S808G).
T2 construct: purchased DiscoverX Co. (contract measurement) scanMAX Kinase assay panel
T2 sequence (Q9P2K8 whole entry S808G): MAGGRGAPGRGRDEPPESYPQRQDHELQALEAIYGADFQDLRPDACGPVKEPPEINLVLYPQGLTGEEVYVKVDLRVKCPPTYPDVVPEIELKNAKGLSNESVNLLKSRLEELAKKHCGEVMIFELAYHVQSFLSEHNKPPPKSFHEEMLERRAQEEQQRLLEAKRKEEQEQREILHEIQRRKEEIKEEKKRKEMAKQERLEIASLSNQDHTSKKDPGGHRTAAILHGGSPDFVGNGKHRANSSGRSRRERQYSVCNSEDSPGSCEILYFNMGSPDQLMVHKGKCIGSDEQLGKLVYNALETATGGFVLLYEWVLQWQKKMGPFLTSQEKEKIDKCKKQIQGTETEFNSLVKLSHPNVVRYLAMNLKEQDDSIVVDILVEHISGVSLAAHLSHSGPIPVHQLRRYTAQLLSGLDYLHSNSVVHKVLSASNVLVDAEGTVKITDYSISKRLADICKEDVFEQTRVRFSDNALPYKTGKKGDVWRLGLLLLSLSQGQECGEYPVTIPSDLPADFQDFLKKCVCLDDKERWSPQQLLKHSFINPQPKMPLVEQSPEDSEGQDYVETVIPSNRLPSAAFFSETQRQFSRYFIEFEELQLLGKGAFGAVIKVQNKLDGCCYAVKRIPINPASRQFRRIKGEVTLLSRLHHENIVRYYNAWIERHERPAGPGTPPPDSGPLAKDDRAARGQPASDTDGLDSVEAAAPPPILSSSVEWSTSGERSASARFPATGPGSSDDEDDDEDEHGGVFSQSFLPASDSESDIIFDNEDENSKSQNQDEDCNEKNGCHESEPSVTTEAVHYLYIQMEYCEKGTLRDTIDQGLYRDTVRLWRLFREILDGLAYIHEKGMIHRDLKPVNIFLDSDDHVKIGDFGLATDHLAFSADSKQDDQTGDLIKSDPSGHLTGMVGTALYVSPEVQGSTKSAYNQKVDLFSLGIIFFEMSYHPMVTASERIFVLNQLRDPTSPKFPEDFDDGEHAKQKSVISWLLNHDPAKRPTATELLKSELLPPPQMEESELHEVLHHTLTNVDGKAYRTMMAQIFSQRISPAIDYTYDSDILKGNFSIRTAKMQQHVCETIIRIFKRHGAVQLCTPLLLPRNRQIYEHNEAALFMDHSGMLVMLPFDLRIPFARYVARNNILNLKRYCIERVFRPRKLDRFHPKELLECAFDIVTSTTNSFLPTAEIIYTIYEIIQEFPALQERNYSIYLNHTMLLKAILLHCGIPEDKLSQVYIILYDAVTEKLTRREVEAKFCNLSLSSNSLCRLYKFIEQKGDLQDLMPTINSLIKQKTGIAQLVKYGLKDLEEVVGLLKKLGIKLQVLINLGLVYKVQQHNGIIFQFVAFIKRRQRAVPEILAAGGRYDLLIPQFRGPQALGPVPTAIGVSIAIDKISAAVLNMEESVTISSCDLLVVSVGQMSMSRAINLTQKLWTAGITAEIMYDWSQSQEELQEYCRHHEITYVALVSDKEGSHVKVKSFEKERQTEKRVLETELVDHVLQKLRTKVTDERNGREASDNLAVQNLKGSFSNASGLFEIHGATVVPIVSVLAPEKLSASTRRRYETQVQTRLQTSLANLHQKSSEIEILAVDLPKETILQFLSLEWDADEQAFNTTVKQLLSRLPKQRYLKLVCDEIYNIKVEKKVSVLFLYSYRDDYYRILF
As to conditions: GCN2(Kin.Dom.2, S808G); 1 uM. The gist of the method:
as §1

Assay [3] deals with T3, kinases of the scanMAX Kinase assay panel (Homo sapiens, UniProt Q56UN5).
T3 construct: purchased DiscoverX Co. (contract measurement) scanMAX Kinase assay panel
T3 sequence (Q56UN5 1-1328): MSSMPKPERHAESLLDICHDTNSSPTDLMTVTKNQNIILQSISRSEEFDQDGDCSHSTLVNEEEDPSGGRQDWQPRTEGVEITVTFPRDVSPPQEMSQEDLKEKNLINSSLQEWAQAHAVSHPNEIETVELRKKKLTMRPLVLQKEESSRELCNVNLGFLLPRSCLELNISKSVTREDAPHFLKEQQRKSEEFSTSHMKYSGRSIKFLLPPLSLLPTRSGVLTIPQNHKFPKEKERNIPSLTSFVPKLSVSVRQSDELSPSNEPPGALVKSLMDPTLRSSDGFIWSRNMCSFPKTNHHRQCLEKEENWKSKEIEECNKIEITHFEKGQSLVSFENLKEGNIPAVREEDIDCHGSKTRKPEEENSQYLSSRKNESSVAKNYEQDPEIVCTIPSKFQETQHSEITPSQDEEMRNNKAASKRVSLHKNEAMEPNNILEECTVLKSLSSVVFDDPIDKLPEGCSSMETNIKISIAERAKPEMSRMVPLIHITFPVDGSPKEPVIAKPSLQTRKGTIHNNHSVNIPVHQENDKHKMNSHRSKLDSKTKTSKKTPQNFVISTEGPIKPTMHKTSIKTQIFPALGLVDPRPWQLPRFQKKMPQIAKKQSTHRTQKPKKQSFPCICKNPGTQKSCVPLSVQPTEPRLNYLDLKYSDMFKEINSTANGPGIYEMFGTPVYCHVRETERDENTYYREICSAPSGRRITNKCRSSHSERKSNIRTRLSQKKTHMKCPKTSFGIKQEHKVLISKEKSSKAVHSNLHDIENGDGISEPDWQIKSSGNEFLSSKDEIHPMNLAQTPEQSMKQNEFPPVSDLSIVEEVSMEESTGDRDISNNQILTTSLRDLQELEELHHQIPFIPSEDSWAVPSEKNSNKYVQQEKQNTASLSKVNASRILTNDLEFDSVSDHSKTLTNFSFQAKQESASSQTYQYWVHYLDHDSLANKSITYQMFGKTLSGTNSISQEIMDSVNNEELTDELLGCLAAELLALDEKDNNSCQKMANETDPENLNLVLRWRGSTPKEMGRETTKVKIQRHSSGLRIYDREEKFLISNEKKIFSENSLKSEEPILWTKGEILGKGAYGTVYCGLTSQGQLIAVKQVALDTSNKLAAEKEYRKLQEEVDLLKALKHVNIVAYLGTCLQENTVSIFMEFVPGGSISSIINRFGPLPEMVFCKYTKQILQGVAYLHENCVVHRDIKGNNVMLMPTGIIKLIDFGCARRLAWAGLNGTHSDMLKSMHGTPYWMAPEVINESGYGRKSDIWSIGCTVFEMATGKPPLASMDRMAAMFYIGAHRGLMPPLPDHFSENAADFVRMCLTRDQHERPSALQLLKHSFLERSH
Conditions: kinase YSK4; 1 uM in DMSO. The gist of the method:
as §1

The target of assay [4] is T4, kinases of the scanMAX Kinase assay panel (Homo sapiens, UniProt O43293).
T4 construct: purchased DiscoverX Co. (contract measurement) scanMAX Kinase assay panel
T4 sequence (O43293 whole entry): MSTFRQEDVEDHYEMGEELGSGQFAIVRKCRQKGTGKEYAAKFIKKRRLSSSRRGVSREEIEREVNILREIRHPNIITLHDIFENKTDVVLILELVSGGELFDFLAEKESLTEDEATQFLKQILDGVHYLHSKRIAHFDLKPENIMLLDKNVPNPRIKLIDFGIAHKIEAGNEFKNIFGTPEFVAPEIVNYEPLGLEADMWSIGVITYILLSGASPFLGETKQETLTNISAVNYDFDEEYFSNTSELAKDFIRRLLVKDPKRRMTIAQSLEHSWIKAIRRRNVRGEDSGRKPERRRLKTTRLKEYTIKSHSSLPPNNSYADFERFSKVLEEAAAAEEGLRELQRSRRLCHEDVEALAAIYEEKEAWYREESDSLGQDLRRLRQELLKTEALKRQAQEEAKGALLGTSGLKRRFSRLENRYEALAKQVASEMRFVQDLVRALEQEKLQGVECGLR
Conditions: DAPK3; 1 uM. The gist of the method:
as §1

Assay [5] deals with T5, kinases of the scanMAX Kinase assay panel (Homo sapiens, UniProt P36888, R834Q).
T5 construct: purchased DiscoverX Co. (contract measurement) scanMAX Kinase assay panel
T5 sequence (P36888 27-993 R834Q): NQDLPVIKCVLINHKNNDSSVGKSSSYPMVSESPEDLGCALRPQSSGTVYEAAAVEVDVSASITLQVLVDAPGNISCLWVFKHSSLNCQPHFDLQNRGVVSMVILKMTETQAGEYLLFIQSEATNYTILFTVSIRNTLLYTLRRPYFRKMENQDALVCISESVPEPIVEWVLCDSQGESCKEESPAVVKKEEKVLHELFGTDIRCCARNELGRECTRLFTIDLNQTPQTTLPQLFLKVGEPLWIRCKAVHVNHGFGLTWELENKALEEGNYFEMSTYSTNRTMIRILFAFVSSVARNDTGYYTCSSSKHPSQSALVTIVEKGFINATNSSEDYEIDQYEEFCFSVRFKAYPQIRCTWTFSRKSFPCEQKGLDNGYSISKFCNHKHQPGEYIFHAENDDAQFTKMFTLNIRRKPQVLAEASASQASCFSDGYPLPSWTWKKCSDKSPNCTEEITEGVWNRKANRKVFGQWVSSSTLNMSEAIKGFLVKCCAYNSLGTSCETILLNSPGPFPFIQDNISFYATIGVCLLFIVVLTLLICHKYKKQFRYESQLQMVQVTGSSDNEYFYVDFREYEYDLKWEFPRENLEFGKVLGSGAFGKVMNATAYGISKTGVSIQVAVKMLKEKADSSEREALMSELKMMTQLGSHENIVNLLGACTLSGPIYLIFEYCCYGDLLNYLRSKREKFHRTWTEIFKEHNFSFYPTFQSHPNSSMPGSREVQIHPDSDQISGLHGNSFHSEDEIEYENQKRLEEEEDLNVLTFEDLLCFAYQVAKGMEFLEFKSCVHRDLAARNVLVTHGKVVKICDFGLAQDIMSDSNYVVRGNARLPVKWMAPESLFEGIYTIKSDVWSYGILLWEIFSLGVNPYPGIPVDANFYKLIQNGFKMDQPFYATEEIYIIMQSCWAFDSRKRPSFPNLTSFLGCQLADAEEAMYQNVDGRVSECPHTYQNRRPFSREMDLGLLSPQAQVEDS
As to conditions: FLT3(R834Q); 1 uM. A digest of the protocol: as §1

In assay [6] the target is T6, kinases of the scanMAX Kinase assay panel (Homo sapiens, UniProt P30291).
T6 construct: purchased DiscoverX Co. (contract measurement) scanMAX Kinase assay panel
T6 sequence (P30291 whole entry): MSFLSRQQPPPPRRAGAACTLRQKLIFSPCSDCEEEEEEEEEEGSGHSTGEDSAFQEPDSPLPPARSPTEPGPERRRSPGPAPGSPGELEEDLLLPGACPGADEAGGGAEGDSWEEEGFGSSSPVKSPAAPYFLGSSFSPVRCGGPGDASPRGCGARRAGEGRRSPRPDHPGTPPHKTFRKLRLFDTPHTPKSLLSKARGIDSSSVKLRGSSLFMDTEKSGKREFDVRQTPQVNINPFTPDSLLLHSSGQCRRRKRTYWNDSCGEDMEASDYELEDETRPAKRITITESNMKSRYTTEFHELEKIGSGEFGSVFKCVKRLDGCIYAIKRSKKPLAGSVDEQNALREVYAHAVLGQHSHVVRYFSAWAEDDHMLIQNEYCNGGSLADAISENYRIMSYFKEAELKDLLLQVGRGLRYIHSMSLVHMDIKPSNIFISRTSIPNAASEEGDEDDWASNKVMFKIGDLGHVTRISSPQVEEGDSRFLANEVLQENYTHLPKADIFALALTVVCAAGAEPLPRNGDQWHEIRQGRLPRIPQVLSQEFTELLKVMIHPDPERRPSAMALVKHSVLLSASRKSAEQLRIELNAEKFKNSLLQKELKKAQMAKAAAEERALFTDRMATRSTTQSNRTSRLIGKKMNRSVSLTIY
Conditions: kinase WEE1; 1 uM in DMSO. A digest of the protocol: as §1

The structures appear in SMILES notation.

T1 sequence (P42336 whole entry C420R): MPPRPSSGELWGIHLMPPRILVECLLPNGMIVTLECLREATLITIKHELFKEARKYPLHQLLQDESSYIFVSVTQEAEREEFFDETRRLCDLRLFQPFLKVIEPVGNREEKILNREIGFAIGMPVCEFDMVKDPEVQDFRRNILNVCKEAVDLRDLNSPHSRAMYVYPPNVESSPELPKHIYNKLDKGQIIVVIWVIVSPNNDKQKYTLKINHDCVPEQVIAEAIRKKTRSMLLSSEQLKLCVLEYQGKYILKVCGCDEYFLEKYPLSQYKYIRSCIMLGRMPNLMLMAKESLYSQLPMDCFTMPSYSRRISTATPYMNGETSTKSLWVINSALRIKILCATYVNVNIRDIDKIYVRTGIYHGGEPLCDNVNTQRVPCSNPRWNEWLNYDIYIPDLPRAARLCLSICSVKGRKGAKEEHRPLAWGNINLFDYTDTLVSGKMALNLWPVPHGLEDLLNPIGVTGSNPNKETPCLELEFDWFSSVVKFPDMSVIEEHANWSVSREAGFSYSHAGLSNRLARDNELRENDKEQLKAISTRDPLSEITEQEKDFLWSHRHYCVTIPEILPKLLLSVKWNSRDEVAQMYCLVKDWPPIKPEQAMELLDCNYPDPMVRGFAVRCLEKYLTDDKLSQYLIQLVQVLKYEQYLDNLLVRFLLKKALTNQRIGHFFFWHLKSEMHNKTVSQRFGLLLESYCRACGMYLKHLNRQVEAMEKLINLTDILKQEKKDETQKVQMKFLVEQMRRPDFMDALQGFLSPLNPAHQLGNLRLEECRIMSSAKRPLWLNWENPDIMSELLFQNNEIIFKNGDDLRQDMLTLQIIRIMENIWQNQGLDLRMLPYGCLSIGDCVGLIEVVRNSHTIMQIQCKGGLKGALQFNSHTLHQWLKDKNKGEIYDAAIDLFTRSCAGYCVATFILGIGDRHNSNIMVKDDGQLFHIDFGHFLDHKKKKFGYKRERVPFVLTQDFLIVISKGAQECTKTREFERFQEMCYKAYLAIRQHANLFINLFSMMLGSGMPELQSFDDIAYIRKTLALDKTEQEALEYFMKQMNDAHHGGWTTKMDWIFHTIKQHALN

Take `CNc1nc(Nc2ccc(C(=O)N3CCOCC3)cc2OC)nc2[nH]cc(C#N)c12` [Example 1, 2-((2-methoxy-4-(morpholine-4-carbonyl)phenyl)amino)-4-(methylamino)-7H-pyrrolo[2,3-d]pyrimidine-5-carbonitrile]: the remaining binding at 1 µM in assay [1] was 94%; in assay [2], 93%; in assay [3] it was 12%; in assay [4] it was 12%; in assay [5] it was 65%; in assay [6], 78%.
Regarding `CC1(Nc2nc(Nc3cnn([C@H]4CCN(C5COC5)C[C@@H]4F)c3Cl)nc3[nH]cc(C#N)c23)CC1` [Example 52, 2-((5-chloro-1-((3S,4S)-3-fluoro-1-(oxetane-3-yl)piperidine-4-yl)-1H-pyrazole-4-yl)amino)((1-methylcyclopropyl)amino)-7H-pyrrolo[2,3-d]pyrimidine-5-carbonitrile], the remaining binding at 1 µM came out at 63% in assay [1]; 33% in assay [2]; 0% in assay [3]; 8.4% in assay [4]; 7.8% in assay [5]; 100% in assay [6].
Regarding `CCNc1nc(Nc2ccc(C(=O)N3CCC(N4CCOCC4)CC3)cc2OC)nc2[nH]cc(C(F)(F)F)c12` [Example 104, (4-((4-(ethylamino)-5-(trifluoromethyl)-7H-pyrrolo[2,3-d]pyrimidine-2-yl)amino)-3-methoxyphenyl)(4-morpholinopiperidine-1-yl)methanone], the remaining binding at 1 µM is 91% in assay [1]; 64% in assay [2]; 94% in assay [3]; 56% in assay [4]; 100% in assay [5]; 100% in assay [6].
